Measurements published in patent US20050118624A1, “Fluorescent probes for ribosomes and method of use” (Cumbre Inc., priority 2003, published 2005).

Assays:
[1] = tested on: 70S Ribosome; experiment: Fluorescence polarization titration of probe binding affinity and kinetics; set-up: species or system E. coli; conditions: for binding affinity compared with Probe 203 / binding kinetics compared with Probe 203: summarized in FIG. 39
[2] = tested on: 70S Ribosome; experiment: Fluorescence polarization competition with Probe 203 bound to ribosomes; assay type: binding, E. coli; conditions: for IC50: compound titrated 400 μM to 1.5 nM, ribosome 150-200% above Kd, read-out: IC50 for competing out Probe 203

| Compound | binding affinity compared with Probe 203 ([1]; fluorescence polarization) | binding kinetics compared with Probe 203 ([1]; fluorescence polarization) | IC50 [2] [µM] | further results |
| --- | --- | --- | --- | --- |
| 9-(4,4-difluoro-5,7-dimethyl-4-bora-3a,4a-diaza-s-indacene-3-propionyl)-amino-erythromycin [Probe 203] | – | – | – | incubation time to reach binding equilibrium ([1]; fluorescence polarization read at various time points): greater than a half hour; affinity for ribosomes compared with values reported in the literature for the parent erythromycin ([1]; fluorescence polarization, ribosome titration 1650 nM to 0.4 nM, buffer with 20% glycerol): slightly reduced affinity |
| 4″-Bodipy FL-aminoethylcarbamate clarithromycin [Probe 242] | greater affinity | even slower kinetics | – | – |
| COc1ccc(C[C@H](N)C(=O)N[C@H]2[C@@H](O)[C@H](n3cnc4c(N(C)C)ncnc43)O[C@@H]2CO)cc1 [puromycin] | – | – | – | competition with Probe 203 ([2]; antibiotic binding to more distant region of the ribosome): did not show competition |
| CC[C@H]1OC(=O)[C@H](C)[C@@H](O[C@H]2C[C@@](C)(OC)[C@@H](O)[C@H](C)O2)[C@H](C)[C@@H](O[C@@H]2O[C@H](C)C[C@H](N(C)C)[C@H]2O)[C@](C)(O)C[C@@H](C)C(=O)[C@H](C)[C@@H](O)[C@]1(C)O [Erythromycin] | – | – | 0.03 | – |
| O=C(N[C@H](CO)[C@H](O)c1ccc([N+](=O)[O-])cc1)C(Cl)Cl [Chloramphenicol] | – | – | 19 | – |
| 9-benzyloxycarbonylamino-4″-Bodipy FL aminoethylcarbamate erythromycin [Probe 238] | greater affinity | even slower kinetics | – | – |
